Assay results from the NIST ThermoML archive (doi:10.1016/j.fluid.2014.10.015).

Settings: Liquid; for mass density: Vibrating tube method

CC(=O)[O-].CCCCn1cc[n+](C)c1 [1-butyl-3-methylimidazolium acetate]
Settings | viscosity [mPa·s]
373.15 K, 101.33 kPa, Concentric cylinders viscometry | 13.8

Settings | mass density [kg/m3]
373.15 K, 9977 kPa | 1012.37
373.15 K, 99180 kPa | 1049.72
373.15 K, 110012 kPa | 1053.53
373.15 K, 120856 kPa | 1057.2
373.15 K, 129989 kPa | 1060.16
373.16 K, 4871 kPa | 1009.91
373.16 K, 29995 kPa | 1021.67
373.16 K, 49968 kPa | 1030.42
373.16 K, 59224 kPa | 1034.29
373.16 K, 90022 kPa | 1046.37
373.17 K, 2297 kPa | 1008.66
373.17 K, 39711 kPa | 1025.99
373.17 K, 69994 kPa | 1038.66
373.18 K, 79589 kPa | 1042.42
393.13 K, 5180 kPa | 998.69
393.14 K, 60153 kPa | 1024.29
393.14 K, 69980 kPa | 1028.4
393.14 K, 80125 kPa | 1032.49
393.14 K, 120002 kPa | 1047.09
393.15 K, 101 kPa | 996.11
393.15 K, 3086 kPa | 997.63
393.15 K, 10081 kPa | 1001.16
393.15 K, 20117 kPa | 1006.09
393.15 K, 30011 kPa | 1010.81
393.15 K, 40130 kPa | 1015.49
393.15 K, 49985 kPa | 1019.89
393.15 K, 90011 kPa | 1036.33
393.15 K, 109214 kPa | 1043.37
393.15 K, 130005 kPa | 1050.39
393.16 K, 99789 kPa | 1039.98
393.16 K, 139958 kPa | 1053.52
413.12 K, 2006 kPa | 985.88
413.12 K, 5092 kPa | 987.51
413.13 K, 20186 kPa | 995.28
413.14 K, 30014 kPa | 1000.15
413.14 K, 40204 kPa | 1005.02
413.14 K, 49979 kPa | 1009.54
413.14 K, 60179 kPa | 1014.09
413.14 K, 70022 kPa | 1018.33
413.14 K, 99791 kPa | 1030.18
413.14 K, 119957 kPa | 1037.4
413.14 K, 139956 kPa | 1043.92
413.15 K, 101 kPa | 984.86
413.15 K, 79800 kPa | 1022.54
413.15 K, 90200 kPa | 1026.45
413.15 K, 109956 kPa | 1033.9
413.15 K, 129954 kPa | 1040.74
413.16 K, 10624 kPa | 990.4
